Four compounds from US8912227B1, “Bicyclic pyrrole derivatives useful as agonists of GPR120” (Janssen Pharmaceutica NV, priority 2014, dated 2014) can be followed below.

Test [1] has as its target T1, short form of the GPR120 receptor (Homo sapiens, UniProt Q5NUL3).
T1 construct: host or cells: PathHunter CHO-K1 GPR120S β-Arrestin Cell Line
The experiment in a line: Human GPR120 DiscoveRx PathHunter β-Arrestin assay, Procedure β-arrestin B. The format is cell-based. The note with it: PathHunter CHO-K1 GPR120S β-Arrestin cell line, 5000 cells/well. From the text: The binding of an agonist (medium/long chain fatty acids or small molecule agonists) to the G-protein-coupled receptor GPR120 activates phospholipase C, leading to release of intracellular Ca^+2 through the generation of inositol 1,4,5-trisphosphate (InsP3 or IP3). GPR120 activation can also trigger intracellular signaling via recruitment of β-Arrestin. In the present method, agonist-induced activation of the human GPR120 receptor is monitored through the use of PathHunter CHO-K1 GPR120 β-Arrestin Cell Line engineered by DiscoveRx, as detailed below. The cell lines are designed to co-express both the ProLink/Enzyme Donor (PK)-tagged GPCR and the Enzyme […] (EA)-tagged Beta-Arrestin fusion proteins. Upon GPR120 receptor stimulation/activation, the EA-tagged β-Arrestin portion is translocated to the tagged receptor, where the two enzyme fragments are brought within close proximity. Under these conditions, these fragments can interact and form an active Beta-gal enzyme complex through Enzyme Fragment Complementation (EFC). This active Beta-gal complex can enzymatically hydrolyse the substrate to produce a detectable light signal; therefore, activation as a function of agonist concentration can be expressed as an EC50 value to determine relative compound activities. This in vitro assay therefore serves to assess compound agonist activity of the GPR120.
In Procedure β-arrestin B the cells used were PathHunter CHO-K1 GPR120S β-Arrestin Cell Line, expressing the short form of the GPR120 receptor (Accession #NM_181745), with 5000 cells/well.
The selected CHO-K1 GPR120 β-Arrestin cells were cultured in Ham's F12 media supplemented with 10% fetal bovine serum (FBS), 1% Glutamine, 1×p/s, 800 μg/ml G418 and 300 μg/ml Hygromycin B (for selection). Cell stocks were maintained and grown in a sub-confluent state using standard cell culture procedures. The day before the experiment, the cells were harvested with non-enzymatic cell dissociation buffer and re-suspended in complete growth media at the desired concentration. A Corning 384-plate was then seeded with the proper number of cells in a volume of 25 μL, per well. The seeded plates were incubated overnight at 37° C.
On the day of the experiment, the Assay Buffer containing (a) HBSS with Ca^++ and Mg^++, (b) 20 mM HEPES, and (c) 0.1% BSA stabilizer (pH 7.4) was prepared. The growth medium was gently removed from the cell plates and 20 μL of Assay Buffer added to each well. The plate was then incubated at 37° C. for 60 mins. Test compounds were serially diluted in Assay Buffer to desired concentrations (more particularly, to one or more of the following μM concentrations: 25 μM, 12.5 μM, 6.25 μM, 3.125 μM, 1.562 μM, 0.781 μM, 0.391 μM, 0.195 μM, 0.098 μM, 0.049 μM, 0.024 μM, 0.012 μM). Five μl of compound dilution was then added to each well and the plate incubated at 37° C. for 90 mins. The detection reagents were prepared according to the manufacture's instruction. Twelve μL of the detection reagents were added to each well and the plate incubated at room temperature for 60 mins.
The plates were read on an EnVision instrument, using Protocol name: Luminescence, Plate type: 384 Costar, Measurement height: 3 mm, Measurement time: 1 s, Aperture: 384 Plate aperture. The % activity relative to the positive control was calculated using the following equation:
The % Activity values were plotted versus the concentration of test compound and fitted to a sigmoidal dose-response curve with a Hill slope=1 (fixed value) using nonlinear regression with GraphPad Prism 5.0 to calculate the EC50 values. The Fitting Equation was: Y=Bottom+(Top−Bottom)/(1+10^((LogEC50−X)*HillSlope)), where X is the log of the concentration and Y is the response.

Test [2] relates to C57bl/6J Mice. Put plainly: GPR120 C57bl6 mouse IPGTT. It is filed as in vivo. The note with it: 30.0 mg/kg, dosed 30 minutes prior to IP glucose 1.5 g/kg; compared with vehicle. The procedure:
Male, C57bl/6J Mice were ordered in at 8 weeks of age from Jackson Labs. Individual mice weighed anywhere in the range of 25-30 grams on study day. The mice were fasted, with removal of food occurring at 7 am on the morning of the study. Animals were moved into the room at 10:00 am, to give them time to acclimate. Glucose (insulin syringes) was drawn up either the night before or the morning of the study. Glucose was dosed (IP) at 1.5 g/kg at 7.5 ml/kg (20% glucose straight TEKNOVA, 250 ml sterile bottle w/ catalogue number G0525). Test compounds were kept spinning and were only drawn into the syringes prior to study commencement. Animals were bled via tail snip to determine basal glucose levels prior to dosing of treatments. An Ascensia BREEZE Blood Glucose Monitoring System by Bayer (using unique 10-test disks) was used for determining glucose levels. The bleeds started at approximately 12:45 pm and dosing started, at 1-minute intervals, immediately after. All groups were dosed 30 minutes prior to glucose administration at a dose volume of 10 ml/kg (the dose volume was calculated separately for each individual animal). Thirty minutes after the first dose animals were bled again for a second baseline, or T=0, and immediately dosed with glucose via an i.p. injection. The exact dose volume for glucose was also calculated separately for each individual animal. […]

T1 sequence (Q5NUL3 whole entry): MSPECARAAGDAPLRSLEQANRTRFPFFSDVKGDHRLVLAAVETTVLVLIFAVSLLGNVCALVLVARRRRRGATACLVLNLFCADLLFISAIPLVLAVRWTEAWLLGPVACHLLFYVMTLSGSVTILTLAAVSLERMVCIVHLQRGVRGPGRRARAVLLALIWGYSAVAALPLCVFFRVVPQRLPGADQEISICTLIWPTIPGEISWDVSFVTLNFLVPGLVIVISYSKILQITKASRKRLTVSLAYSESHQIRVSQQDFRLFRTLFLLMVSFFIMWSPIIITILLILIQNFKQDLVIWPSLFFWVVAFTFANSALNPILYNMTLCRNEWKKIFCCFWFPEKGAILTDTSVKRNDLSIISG
T1 sequence (P32121 whole entry partner): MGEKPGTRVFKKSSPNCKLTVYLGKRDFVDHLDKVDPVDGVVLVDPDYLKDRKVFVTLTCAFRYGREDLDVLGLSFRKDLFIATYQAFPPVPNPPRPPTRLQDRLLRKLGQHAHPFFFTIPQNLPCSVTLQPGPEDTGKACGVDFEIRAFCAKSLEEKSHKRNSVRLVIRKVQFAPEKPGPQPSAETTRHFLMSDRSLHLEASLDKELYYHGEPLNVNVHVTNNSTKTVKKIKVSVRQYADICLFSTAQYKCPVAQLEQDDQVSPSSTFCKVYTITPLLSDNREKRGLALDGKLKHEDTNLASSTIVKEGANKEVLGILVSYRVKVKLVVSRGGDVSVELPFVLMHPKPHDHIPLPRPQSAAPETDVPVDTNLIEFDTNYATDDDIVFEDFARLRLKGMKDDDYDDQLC

One may read the EC50 as the concentration needed to bring the measured effect to its halfway point. In turn, `Cc1ccc(-n2ccc(C(F)(F)F)c2COc2c(F)cc(CCC(=O)O)cc2F)cc1` [Compound 39, 3-(3,5-difluoro-4-[[1-(4-methylphenyl)-3-(trifluoromethyl)-1H-pyrrol-2-yl]methoxy]phenyl)propanoic acid] gave an EC50 in test [1] of 219 nM. For `Cc1c(CCC(=O)O)ccc(OCc2cccn2-c2ccc(Cl)cc2)c1C` [Compound 1, 3-(4-{[1-(4-Chlorophenyl)-1H-pyrrol-2-yl]methoxy}-2,3-dimethylphenyl)propanoic acid], the “GPR120 C57bl6 Mouse IPGTT Results” value in test [2] was “not different”.

`CCc1ccc(-n2ccc(C(F)(F)F)c2COc2ccc(CCC(=O)O)c(F)c2F)cc1` [Compound 34, 3-(4-[[1-(4-ethylphenyl)-3-(trifluoromethyl)-1H-pyrrol-2-yl]methoxy]-2,3-difluorophenyl)propanoic acid] yielded an EC50 in test [1] of 179 nM. That is a sub-micromolar value. Still for that read-out and setting: the same measure for `OCCCc1ccc(OCc2c(C(F)(F)F)ccn2-c2ccc(Cl)cc2)c(F)c1F` [Compound 29, 3-(4-{[1-(4-Chlorophenyl)-3-(trifluoromethyl)-1H-pyrrol-2-yl]methoxy}-2,3-difluorophenyl)propan-1-ol]: 63 nM.
